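Grown in 96-well plates, cells were treated for 48 hours with each compound at five concentrations. Insufficient inhibition: endpoint recorded as highest concentration tested. GI50 is the concentration that inhibits growth by half. TGI: concentration producing complete growth inhibition.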

Test systems include SK-MEL-28 melanoma; K-562 leukemia; OVCAR-3 ovarian; SK-OV-3 ovarian; HT29 colon; U251 CNS; HCT-116 colon; A549 NSCLC; MALME-3M melanoma.
What all share (assay): inhibition of tumour cell growth, NCI panel, 48 h

With `Cc1nc(C(N)=O)c(N)n1CCN1CCN(C(=O)CCCCCCCCCCNC2N=CNc3nc[nH]c32)CC1` (configuration not stated), the TGI was 79.1 µM in the assay on SK-MEL-28 melanoma; greater than 100 µM in the assay on K-562 leukemia; greater than 100 µM in the assay with OVCAR-3 ovarian; greater than 100 µM in the assay on SK-OV-3 ovarian; greater than 100 µM in the assay with HT29 colon; greater than 100 µM with U251 CNS. Moreover, the TGI with HCT-116 colon, with A549 NSCLC and with MALME-3M melanoma was greater than 100 µM each time.

Turning to `CN1N=CSC12C(=O)N(c1ccccc1)C(=O)N2c1ccccc1` (configuration not stated), the TGI in the assay with SK-MEL-28 melanoma, in the assay with K-562 leukemia, with OVCAR-3 ovarian, in the assay on SK-OV-3 ovarian, with HT29 colon and in the assay with U251 CNS was greater than 100 µM throughout. For the same molecule, the TGI with HCT-116 colon, in the assay with A549 NSCLC and in the assay on MALME-3M melanoma was greater than 100 µM each time.

For the molecule `O=C1C2C3C=C4c5ccccc5N(c5ccccc5)C4(C2C(=O)N1c1ccccc1)C1C(=O)N(c2ccccc2)C(=O)C31` (configuration not stated), the TGI in the assay on SK-MEL-28 melanoma, in the assay on K-562 leukemia, in the assay on HT29 colon, with U251 CNS, in the assay with HCT-116 colon and with A549 NSCLC was greater than 100 µM throughout. This molecule yielded a TGI in the assay with MALME-3M melanoma greater than 100 µM.

Regarding `CN(C(=O)/C=C/c1ccccc1)C1C2CN3CCC(O2)C13` (configuration not stated), the TGI in the assay on SK-MEL-28 melanoma, in the assay with K-562 leukemia, with OVCAR-3 ovarian, in the assay on SK-OV-3 ovarian, in the assay with HT29 colon and in the assay on U251 CNS was greater than 100 µM throughout. The TGI with HCT-116 colon, in the assay with A549 NSCLC and in the assay with MALME-3M melanoma was greater than 100 µM each time.

`O=C1C[C@H]2CCCN2[C@@H](c2ccccc2)C1`: the TGI with SK-MEL-28 melanoma, in the assay on K-562 leukemia, in the assay with OVCAR-3 ovarian, in the assay with SK-OV-3 ovarian, with HT29 colon and in the assay on U251 CNS was greater than 100 µM each time. The TGI in the assay on HCT-116 colon, in the assay with A549 NSCLC and in the assay with MALME-3M melanoma was greater than 100 µM in each case.

With `CCc1cccc(C)c1NS(=O)(=O)c1ccccc1`, the TGI in the assay on SK-MEL-28 melanoma, in the assay with K-562 leukemia, in the assay with OVCAR-3 ovarian, in the assay with SK-OV-3 ovarian, with HT29 colon and in the assay on U251 CNS was greater than 100 µM throughout. Besides, the TGI in the assay with HCT-116 colon, with A549 NSCLC and in the assay on MALME-3M melanoma was greater than 100 µM each time.

In the case of `C[C@@]1(O)C2CC3CC1(c1ccccc1)CC(/C3=N/O)/C2=N\O` (some centres not stated), the TGI with SK-MEL-28 melanoma, with K-562 leukemia, in the assay on OVCAR-3 ovarian, with SK-OV-3 ovarian, in the assay on HT29 colon and with U251 CNS was greater than 100 µM each time. Further, the TGI in the assay on HCT-116 colon, in the assay on A549 NSCLC and in the assay with MALME-3M melanoma was greater than 100 µM throughout.

Take `O=c1cc(-c2cccs2)[nH]c2cc3c(cc12)OCO3`: the TGI is greater than 100 µM with SK-MEL-28 melanoma; greater than 100 µM with K-562 leukemia; greater than 28.5 µM with OVCAR-3 ovarian; 8.14 µM in the assay on SK-OV-3 ovarian; greater than 74.7 µM in the assay with HT29 colon; greater than 60.2 µM in the assay with U251 CNS. Further, the TGI in the assay with HCT-116 colon, in the assay on A549 NSCLC and with MALME-3M melanoma was greater than 100 µM throughout.

With `O=c1ncccn1[C@@H]1O[C@H](CO)[C@H](O)C1O` (some centres not stated), the TGI in the assay with SK-MEL-28 melanoma, in the assay on K-562 leukemia, in the assay with OVCAR-3 ovarian, in the assay on SK-OV-3 ovarian, with HT29 colon and in the assay on U251 CNS was greater than 100 µM in each case. The TGI with HCT-116 colon, in the assay on A549 NSCLC and in the assay with MALME-3M melanoma was greater than 100 µM in each case.

For `Nc1ncnc2c1ncn2C1OC(CSCC(F)(F)F)C(O)C1O` (configuration not stated), the TGI with SK-MEL-28 melanoma, in the assay with K-562 leukemia, in the assay with OVCAR-3 ovarian, with SK-OV-3 ovarian, with HT29 colon and in the assay with U251 CNS was greater than 100 µM in each case. Also, the TGI in the assay on HCT-116 colon, in the assay with A549 NSCLC and with MALME-3M melanoma was greater than 100 µM in each case.

Take `CCSCCCSCCSCC`: the TGI in the assay with SK-MEL-28 melanoma, with K-562 leukemia, in the assay on OVCAR-3 ovarian, in the assay on SK-OV-3 ovarian, in the assay with HT29 colon and with U251 CNS was greater than 100 µM each time. Moreover, the TGI in the assay on HCT-116 colon and in the assay with A549 NSCLC was greater than 100 µM throughout.

Regarding `c1ccc(C2ONC3=NCCN32)cc1` (configuration not stated), the GI50 is greater than 100 µM in the assay on SK-MEL-28 melanoma; 16.1 µM with K-562 leukemia; 20.5 µM in the assay with OVCAR-3 ovarian; 37 µM in the assay on SK-OV-3 ovarian; 67.9 µM with HT29 colon; 55 µM with U251 CNS. Also, the GI50 in the assay with HCT-116 colon is 30.3 µM; in the assay on A549 NSCLC, 51.1 µM; with MALME-3M melanoma, 62.9 µM. For the same molecule, the TGI was greater than 100 µM with SK-MEL-28 melanoma; greater than 100 µM in the assay with K-562 leukemia; 66.3 µM in the assay on OVCAR-3 ovarian; greater than 100 µM with SK-OV-3 ovarian; greater than 100 µM in the assay on HT29 colon; greater than 100 µM in the assay with U251 CNS. For the same molecule, the TGI with HCT-116 colon, with A549 NSCLC and in the assay on MALME-3M melanoma was greater than 100 µM in each case.

Turning to `c1cc[c]([Sn][c]2ccccc2)cc1`, the GI50 in the assay on SK-MEL-28 melanoma is 14.5 µM; in the assay on K-562 leukemia, 25.2 µM; with OVCAR-3 ovarian, 17.8 µM; with SK-OV-3 ovarian, 26.4 µM; in the assay with HT29 colon, 20.2 µM; with U251 CNS it was 19.4 µM. Moreover, the values for the GI50 in the assay with HCT-116 colon, with A549 NSCLC and in the assay on MALME-3M melanoma were 18.2 µM, 21.5 µM and 23.2 µM, respectively. The TGI with SK-MEL-28 melanoma is 36 µM; in the assay with K-562 leukemia it was 69 µM; with OVCAR-3 ovarian it was 35 µM; in the assay with SK-OV-3 ovarian it was 90.9 µM; in the assay on HT29 colon, 37 µM; with U251 CNS it was 42 µM. Also, the TGI with HCT-116 colon turned out to be 37.7 µM; with A549 NSCLC it was 51.5 µM; in the assay with MALME-3M melanoma it was 47.7 µM.

The values above are taken from PubChem BioAssay (NCI).
